Data on 1 molecule can be found in US20110245091A1, “REACTION PROGRESS ASSAY FOR SCREENING BIOLOGICAL ACTIVITY OF ENZYMES” (priority 2010, published 2011).

A word on the Ki: it is the equilibrium dissociation constant of an inhibitor or competing ligand from its target.

In the test the target is T1, HIV-I reverse transcriptase (Human immunodeficiency virus type 1 group M subtype B, UniProt P04585).
T1 construct: HIV-I RNA-dependent DNA polymerase (reverse transcriptase); purchased Worthington LS05006
In words: Reaction progress luminescence assay of cDNA synthesis by HIV-I reverse transcriptase (luciferase detection of dATP). It is filed as biochemical. The method, then:
The reaction was set by adding: 16 µL of RNAse-free water; 2 µL of 10× reaction buffer (400 mM Tris-HCl, 60 mM MgCl2, 100 mM Dithiothreitol, 20 mM spermidine, pH 7.9 @ 25° C.); 2 µL of template, polyuridylic acid at 1 µg/µL (Midland Certified Reagent Company, Cat. No. P-3004); 2 µL of primer poly(A)18 at 0.5 µg/µL (Polydeoxyadenylate, 18 base long purchased from Integrated DNA technologies); 20 µM of dATP; 3 U of HIV-I (Worthington, Cat. No. LS05006); 3 µL of ATP detection solution prepared by diluting luciferase (EC 1.13.12.7) at 3 µg/mL in 0.1M Tris-acetate pH 7.7, 2 mM EDTA, 10 mM magnesium acetate, 0.1% BSA, 1 mM dithiothreitol, 0.4 mg/mL PVP, and 0.4 mM D-luciferin. A 5 µL of reaction solution has been added to a well of 384-well plate and the luminescence intensity vs. time was recorded on Orion II microplate luminometer at 25° C. (Berthold detection Systems (Pforzheim, Germany)). A first derivative, ∂l(t)l∂t, for the luminescence intensity has been calculated. The derivative was calculated by selecting a group of three or more consecutive measurements of the luminescence intensity and calculating by a least square method the “instant” slope of the luminescent intensity which said slope represents the first derivative of the luminescence at the time when the respective measurements were made. […]

SMILES strings stand for the structures.

On to `C[C@H](Cn1cnc2c(N)ncnc21)OCP(=O)(O)O` [MT-4S], for which the “mechanism of inhibition (crossing of trend lines)” value (MT-4S at 1.2 nM and 3.7 nM) is “non-competitive”. The inhibitory constant (Ki) (inhibitor at 0, 1.2 and 3.7 nM, 20 μM dATP, 25° C., read-out: inhibition constant Ki) is 0.9 ± 0.15 nM.
